This is an account of results in paper PMC7116955 (Biochimica et Biophysica Acta. General Subjects, 2005).

“Also recorded” adds a separate entry of the source.

What all share (conditions): pH 7.4
For data set [1], the system named is Pep 1E. It is filed as binding, SARS-CoV.
Data set [2] concerns Pep 2B. It is filed as binding, SARS-CoV.
In data set [3] the test system is Pep HR2. The class given is binding, SARS-CoV.
Data set [4] has as its system Pep 1D. The class given is binding, SARS-CoV.
Data set [5] concerns Pep 1E. The class given is binding, SARS-CoV. This is another data set of the same source.
The subject of data set [6] is Pep 2B. It is filed as binding, SARS-CoV. The source holds these as a separate data set.
Data set [7] concerns Pep HR2. The class given is binding, SARS-CoV. The source holds these as a separate data set.
The format of data set [8] is physicochemical.
The format of data set [9] is physicochemical. This is another data set of the same source.
Data set [10] is classed as physicochemical. The source holds these as a separate data set.

“WQEWEQKITALLEQAQIQQEKNEYELQKLDKWASLWEWF [Pep T-1249]”: in [1], the “fluorescence emission intensity variation on titration with Pep 1E” value was “The same occurs for T-1249, although the results are not so evident”. Further, the “fluorescence emission intensity variation on titration with Pep 2B” value in [2] is listed as “Fluorescence variation was not detected”. The “fluorescence emission intensity variation on titration with Pep HR2” value in data set [3] is given as “The same occurs for T-1249, although the results are not so evident”. Further, the “ANS fluorescence increase / interaction with Pep 1D, S peptide added” value in data set [4] is reported as “exhibit a larger variability; also recorded: low signal/noise ratios, preventing straightforward conclusions”. Besides, the “ANS fluorescence / interaction with Pep 1E” value in [5] is listed as “does not interact”. Moreover, in [6], the “ANS fluorescence / interaction with Pep 2B” value is on record as “no evidence of interaction”. For the same sequence, the “ANS fluorescence / interaction with Pep HR2” value in [7] is on record as “no evidence of interaction”. Moreover, in data set [8], the “self-aggregation by ANS fluorescence” value was “self-aggregate”. Also, in [9], the interaction with membranes result is given as “most extensive interaction with membranes”. Besides, in data set [10], the “membrane partition in presence of Pep 1D” value is “The same occurs”, the “membrane partition in presence of Pep 1E” value is “The same occurs”, the “membrane partition in presence of Pep 2B” value was “no difference occurs” and the “membrane partition in presence of Pep HR2” value is “no difference occurs”.
